The values that follow come from patent publication US20240108753A1, “NUCLEIC ACID DELIVERY” (NUNTIUS THERAPEUTICS LIMITED, priority 2021, published 2024).

Data set [1] can be described thus: Hydrodynamic size, polydispersity index and zeta potential of dendrimer, lipid and mRNA complexes. It counts as physicochemical. The conditions noted are these: DOTMA/DOPE w/w 10:1 to mRNA; for Hydrodynamic size: dendrimer, lipid and mRNA complexes. The procedure:
The hydrodynamic size, polydispersity index and Zeta potential was determined for a set of the dendrimers disclosed in Tables 1 and 2.

A further data set deals with HeLa cells. The experiment in a line: mRNA (eGFP) transfection with peptide dendrimers and DOTMA/DOPE in full growth medium. The data set is classed as cell-based, human. The conditions noted are these: for mRNA transfection efficiency (eGFP), in words: HeLa, full growth medium, DOTMA/DOPE w/w 10:1 to mRNA, relative to G1,2-RL, 3-LR. As for the experimental part: FIG. 28. mRNA transfection of the peptide dendrimers with lipid system in vitro. […] The mRNA used expressed an eGFP reporter gene. Following a 24 hour transfection, the cells were harvested to assay the eGFP expression. The eGFP expression was normalised with the total amount of protein of each transfection. The gene expression level was calculated by normalising the transfection value of the G1,2-RL, 3-LR, DOTMA/DOPE & mRNA treated cells. 1st, 2nd and 3rd generation dendrimers with varying cores and 1st, 2nd, and 3rd generation peptide motifs can transfect cells with mRNA effectively under the tested conditions.
FIG. 29. mRNA transfection of the peptide dendrimers with lipid system in vitro. HeLa cells were transfected with mRNA alone or mRNA with peptide dendrimers and DOTMA/DOPE (w/w=10:1 to mRNA). The N:P ratio of G1,2-RL,3-LR was at 0.16:1 while the N:P ratios of all other dendrimers at 8:1. The mRNA used expressed an eGFP reporter gene. Following a 24 hour transfection, the cells were harvested to assay the eGFP expression. The eGFP expression was normalised with the total amount of protein of each transfection. The gene expression level was calculated by normalising the transfection value of the G1,2-RL, 3-LR, DOTMA/DOPE & mRNA treated cells. 1st, 2nd and 3rd generation dendrimers with varying cores and 1st, 2nd, and 3rd generation peptide motifs can transfect cells with mRNA effectively under the tested conditions.
The effect on the number of generations of dendrimers on mRNA delivery was studied by transfecting HeLa cells in full growth medium conditions.

Turning to (LR)2KRHC-NH2 [RHCG1-LR], in data set [1] (N:P 0.16:1), the “Polydispersity Index (PDI)” value is given as 0.107, the “Zeta Potential” value is recorded as 40 mV and the Hydrodynamic size is 129 nm. Further, in data set [1] (N:P 8:1), the “Polydispersity Index (PDI)” value is reported as 0.577, the “Zeta Potential” value was 35 mV and the Hydrodynamic size was determined as 326 nm. Also, the “mRNA transfection efficiency (eGFP), in words” value in the data set on HeLa cells is “can transfect cells effectively”.

Regarding “(LR)8(KRL)4(KRL)2KGSCRHCRFWRYM-NH2 [LinearG1,2-RL, 3-LR]”, in data set [1] (N:P 0.16:1), the “Polydispersity Index (PDI)” value worked out at 0.143, the “Zeta Potential” value was found to be 42 mV and the Hydrodynamic size is given as 118 nm. Besides, in data set [1] (N:P 8:1), the “Polydispersity Index (PDI)” value worked out at 0.289, the “Zeta Potential” value stood at 54 mV and the Hydrodynamic size stood at 62 nm. For the same substance, the “mRNA transfection efficiency (eGFP), in words” value with HeLa cells is reported as “transfection efficiency was not affected”.

Regarding (R)2KRHC-NH2 [RHCG1-R], in data set [1] (N:P 0.16:1), the “Polydispersity Index (PDI)” value is reported as 0.123, the “Zeta Potential” value is reported as 33 mV and the Hydrodynamic size is reported as 129 nm. In data set [1] (N:P 8:1), the “Polydispersity Index (PDI)” value came to 0.566, the “Zeta Potential” value was determined as 45 mV and the Hydrodynamic size is 366 nm. The “mRNA transfection efficiency (eGFP), in words” value in the data set with HeLa cells is given as “can transfect cells effectively”.

As for (R)4(KR)2KRHC-NH2 [RHCG1,2-R], in data set [1] (N:P 0.16:1), the “Polydispersity Index (PDI)” value was 0.114, the “Zeta Potential” value was 37 mV and the Hydrodynamic size came out at 123 nm. Moreover, in data set [1] (N:P 8:1), the “Polydispersity Index (PDI)” value worked out at 0.252, the “Zeta Potential” value was 49 mV and the Hydrodynamic size stood at 172 nm. The “mRNA transfection efficiency (eGFP), in words” value in the data set with HeLa cells is reported as “can transfect cells effectively”.

Take “(RL)8(KRL)4(KLR)2KGSC-NH2 [G1-LR,2,3-RL]”: in data set [1] (N:P 0.16:1), the “Polydispersity Index (PDI)” value is recorded as 0.136, the “Zeta Potential” value was 41 mV and the Hydrodynamic size is 132 nm. In data set [1] (N:P 8:1), the “Polydispersity Index (PDI)” value is 0.417, the “Zeta Potential” value worked out at 53 mV and the Hydrodynamic size was determined as 80 nm.

Turning to (RLR)2KRHC-NH2 [RHCG1-RLR], in data set [1] (N:P 0.16:1), the “Polydispersity Index (PDI)” value worked out at 0.363, the “Zeta Potential” value worked out at 41 mV and the Hydrodynamic size worked out at 105 nm. Besides, in data set [1] (N:P 8:1), the “Polydispersity Index (PDI)” value came to 0.766 and the Hydrodynamic size is recorded as 183 nm.

In the case of (RLR)4(KRLR)2KRHC-NH2 [RHCG1,2-RLR], in data set [1] (N:P 0.16:1), the “Polydispersity Index (PDI)” value came out at 0.154, the “Zeta Potential” value was determined as 39 mV and the Hydrodynamic size came out at 116 nm. Also, in data set [1] (N:P 8:1), the “Polydispersity Index (PDI)” value was 0.214 and the Hydrodynamic size worked out at 83 nm.

Consider “(RLR)8(KRLR)4(KRLR)2KRHC-NH2 [RHCG1,2,3-RLR]”, for which, in data set [1] (N:P 0.16:1), the “Polydispersity Index (PDI)” value is listed as 0.154, the “Zeta Potential” value came out at 42 mV and the Hydrodynamic size stood at 130 nm. Further, in data set [1] (N:P 8:1), the “Polydispersity Index (PDI)” value is 0.299, the “Zeta Potential” value worked out at 56 mV and the Hydrodynamic size was 73 nm.

As for (RR)4(KLL)2KGSC-NH2 [G1-LL, 2-RR], in data set [1] (N:P 0.16:1), the “Polydispersity Index (PDI)” value came to 0.124, the “Zeta Potential” value was 41 mV and the Hydrodynamic size is recorded as 135 nm. For the same substance, in data set [1] (N:P 8:1), the “Polydispersity Index (PDI)” value was found to be 0.087, the “Zeta Potential” value is reported as 47 mV and the Hydrodynamic size came to 213 nm. In addition, the “mRNA transfection efficiency as share of the improved formulation (DOTMA/DOPE w/w=10:1, N:P=0.16:1)” value in the data set with HeLa cells (DOTMA/DOPE w/w=2:1 to mRNA and N:P=20:1) amounted to 10%. Also, the “mRNA transfection efficiency (eGFP), in words” value in the data set with HeLa cells is on record as “can be used to deliver mRNA”.

As to “(WR)8(KRM)4(KRF)2KGSC-NH2 [G1-RF, 2-RM, 3-WR]”, in data set [1] (N:P 0.16:1), the “Polydispersity Index (PDI)” value is recorded as 0.125, the “Zeta Potential” value is 41 mV and the Hydrodynamic size was found to be 142 nm. Also, in data set [1] (N:P 8:1), the “Polydispersity Index (PDI)” value worked out at 0.277, the “Zeta Potential” value was 51 mV and the Hydrodynamic size is recorded as 80 nm.

As for “(YR)8(KRT)4(KRQ)2KGSC-NH2 [G1-RQ, 2-RT, 3-YR]”, in data set [1] (N:P 0.16:1), the “Polydispersity Index (PDI)” value turned out to be 0.135, the “Zeta Potential” value is 41 mV and the Hydrodynamic size was 130 nm. Moreover, in data set [1] (N:P 8:1), the “Polydispersity Index (PDI)” value is recorded as 0.409, the “Zeta Potential” value came out at 54 mV and the Hydrodynamic size is reported as 100 nm.

In the case of “(lR)8(KrL)4(kRl)2KGSC-NH2 [G1-Rl, 2-rL, 3-lR]”, in data set [1] (N:P 0.16:1), the “Polydispersity Index (PDI)” value stood at 0.22, the “Zeta Potential” value is reported as 42 mV and the Hydrodynamic size is given as 135 nm. Further, in data set [1] (N:P 8:1), the “Polydispersity Index (PDI)” value is on record as 0.241, the “Zeta Potential” value is listed as 56 mV and the Hydrodynamic size came out at 74 nm.

Regarding “(lr)8(Krl)4(Krl)2Kgsc-NH2 [LK-G1,2-rl, 3-lr]”, in data set [1] (N:P 0.16:1), the “Polydispersity Index (PDI)” value is reported as 0.16, the “Zeta Potential” value amounted to 45 mV and the Hydrodynamic size was 132 nm. For the same substance, in data set [1] (N:P 8:1), the “Polydispersity Index (PDI)” value was 0.251, the “Zeta Potential” value was determined as 53 mV and the Hydrodynamic size was 74 nm.

Consider “(lr)8(krl)4(krl)2kgsc-NH2 [D-G1,2-rl, 3-lr]”, for which, in data set [1] (N:P 0.16:1), the “Polydispersity Index (PDI)” value is given as 0.148, the “Zeta Potential” value is 43 mV and the Hydrodynamic size came to 134 nm. In data set [1] (N:P 8:1), the “Polydispersity Index (PDI)” value came to 0.246, the “Zeta Potential” value is 53 mV and the Hydrodynamic size amounted to 73 nm.
